Laboratory results: patent US8551937B2, “Peptide having an extending action for half-life of object peptide in plasma” (priority 2008, dated 2013)
Where a SMILES comes first, the peptide text is derived from it.

Assay: Motilin immunoreactivity concentration in plasma, half-life after intravenous administration (Example 8)
Settings: male, SD, rat, in vivo, iv, 10 nmol/kg
Protocol: The experiment was carried out using rats into which polyethylene tube (PE-50 manufactured by Clay Adams) was inserted into thigh artery under an anesthetized condition with Nembutal. As to a test system, male SD strain rats (Nippon Charles River) of 7 weeks age were used where one group comprised 3 rats. Human motilin or a derivative thereof in a dose of 10 nmol/kg was administered into tail vein of the rat and the blood before the administration and until 60 minutes after the administration was periodically collected by a polyethylene tube inserted into the thigh artery. To the collected blood were added EDTA (manufactured by Dojin Laboratories) and aprotinin (manufactured by Bayer) as a stabilizer and an anti-coagulant, respectively and the plasma was separated therefrom by centrifugal separation. Motilin immunoreactivity concentration in plasma was measured by a competitive radioimmunoassay (RIA) (FIG. 8). At that time, a rabbit polyclonal antibody (#870623) which specifically recognizes the amino acid numbers 1 to 12 of native motilin shown by SEQ ID No: 102 was used as an antibody and, as a labeled compound, ^125I-[Tyr^7] human motilin was used.
In the case of `CC[C@H](C)[C@H](NC(=O)[C@@H]1CCCN1C(=O)[C@@H](NC(=O)[C@@H](N)Cc1ccccc1)C(C)C)C(=O)N[C@@H](Cc1ccccc1)C(=O)N[C@H](C(=O)N[C@@H](Cc1ccc(O)cc1)C(=O)NCC(=O)N[C@@H](CCC(=O)O)C(=O)N[C@@H](CC(C)C)C(=O)N[C@@H](CCC(N)=O)C(=O)N[C@@H](CCCNC(=N)N)C(=O)N[C@H](C(=O)N[C@@H](CCC(N)=O)C(=O)N[C@@H](CCC(N)=O)C(=O)N[C@@H](CCCNC(=N)N)C(=O)N[C@@H](CCCCN)C(=O)N[C@@H](CCC(=O)O)C(=O)N1CCC[C@H]1C(=O)N[C@@H](CCCCN)C(=O)N[C@@H](CCCCN)C(=O)N1CCC[C@H]1C(=O)N1CCC[C@H]1C(=O)N[C@@H](C)C(=O)N[C@@H](CCCCN)C(=O)N[C@@H](CC(C)C)C(=O)N[C@@H](CCC(N)=O)C(=O)N1CCC[C@H]1C(=O)N[C@@H](CCCNC(=N)N)C(=O)O)C(C)C)[C@@H](C)O` [Chimeric motilin (Q)(MG-18S/P)] (H-FVPIFTYGELQRVQQRKEPKKPPAKLQPR-OH; N-terminus and C-terminus assumed), the half-life is reported as 9.65 min.
In the case of `CC[C@H](C)[C@H](NC(=O)[C@@H]1CCCN1C(=O)[C@@H](NC(=O)[C@@H](N)Cc1ccccc1)C(C)C)C(=O)N[C@@H](Cc1ccccc1)C(=O)N[C@H](C(=O)N[C@@H](Cc1ccc(O)cc1)C(=O)NCC(=O)N[C@@H](CCC(=O)O)C(=O)N[C@@H](CC(C)C)C(=O)N[C@@H](CCC(N)=O)C(=O)N[C@@H](CCCNC(=N)N)C(=O)N[C@H](C(=O)N[C@@H](CCC(N)=O)C(=O)N[C@@H](CCC(N)=O)C(=O)N[C@@H](CCCNC(=N)N)C(=O)N[C@@H](CCCCN)C(=O)N[C@@H](CCC(=O)O)C(=O)N[C@@H](CC(C)C)C(=O)N[C@@H](CCCCN)C(=O)N[C@@H](CCCCN)C(=O)N1CCC[C@H]1C(=O)N1CCC[C@H]1C(=O)N[C@@H](C)C(=O)N[C@@H](CCCCN)C(=O)N[C@@H](CC(C)C)C(=O)N[C@@H](CCC(N)=O)C(=O)N1CCC[C@H]1C(=O)N[C@@H](CCCNC(=N)N)C(=O)O)C(C)C)[C@@H](C)O` [Chimeric motilin (R)(MG-18S/L)] (H-FVPIFTYGELQRVQQRKELKKPPAKLQPR-OH; N-terminus and C-terminus assumed), the half-life is reported as 9.13 min.
In the case of `CC[C@H](C)[C@H](NC(=O)[C@@H]1CCCN1C(=O)[C@@H](NC(=O)[C@@H](N)Cc1ccccc1)C(C)C)C(=O)N[C@@H](Cc1ccccc1)C(=O)N[C@H](C(=O)N[C@@H](Cc1ccc(O)cc1)C(=O)NCC(=O)N[C@@H](CCC(=O)O)C(=O)N[C@@H](CC(C)C)C(=O)N[C@@H](CCC(N)=O)C(=O)N[C@@H](CCCNC(=N)N)C(=O)N[C@H](C(=O)N[C@@H](CCC(N)=O)C(=O)N[C@@H](CCC(N)=O)C(=O)N[C@@H](CCCNC(=N)N)C(=O)N[C@@H](CCCCN)C(=O)N[C@@H](CCC(=O)O)C(=O)N[C@@H](C)C(=O)N[C@@H](CCCCN)C(=O)N[C@@H](CCCCN)C(=O)N1CCC[C@H]1C(=O)N1CCC[C@H]1C(=O)N[C@@H](C)C(=O)N[C@@H](CCCCN)C(=O)N[C@@H](CC(C)C)C(=O)N[C@@H](CCC(N)=O)C(=O)N1CCC[C@H]1C(=O)N[C@@H](CCCNC(=N)N)C(=O)O)C(C)C)[C@@H](C)O` [Chimeric motilin (S)(MG-18S/A)] (H-FVPIFTYGELQRVQQRKEAKKPPAKLQPR-OH; N-terminus and C-terminus assumed), the half-life is reported as 9.29 min.
In the case of `CC[C@H](C)[C@H](NC(=O)[C@@H]1CCCN1C(=O)[C@@H](NC(=O)[C@@H](N)Cc1ccccc1)C(C)C)C(=O)N[C@@H](Cc1ccccc1)C(=O)N[C@H](C(=O)N[C@@H](Cc1ccc(O)cc1)C(=O)NCC(=O)N[C@@H](CCC(=O)O)C(=O)N[C@@H](CC(C)C)C(=O)N[C@@H](CCC(N)=O)C(=O)N[C@@H](CCCNC(=N)N)C(=O)N[C@H](C(=O)N[C@@H](CCC(N)=O)C(=O)N[C@@H](CCC(N)=O)C(=O)N[C@@H](CCCNC(=N)N)C(=O)N[C@@H](CCCCN)C(=O)N[C@@H](CC(N)=O)C(=O)N[C@@H](CO)C(=O)N[C@@H](CCCCN)C(=O)N[C@@H](CCCCN)C(=O)N1CCC[C@H]1C(=O)N1CCC[C@H]1C(=O)N[C@@H](C)C(=O)N[C@@H](CCCCN)C(=O)N[C@@H](CC(C)C)C(=O)N[C@@H](CCC(N)=O)C(=O)N1CCC[C@H]1C(=O)N[C@@H](CCCNC(=N)N)C(=O)O)C(C)C)[C@@H](C)O` [Chimeric motilin (T)(MG-17E/N)] (H-FVPIFTYGELQRVQQRKNSKKPPAKLQPR-OH; N-terminus and C-terminus assumed), the half-life is reported as 5.47 min.
Compound `CC[C@H](C)[C@H](NC(=O)[C@@H]1CCCN1C(=O)[C@@H](NC(=O)[C@@H](N)Cc1ccccc1)C(C)C)C(=O)N[C@@H](Cc1ccccc1)C(=O)N[C@H](C(=O)N[C@@H](Cc1ccc(O)cc1)C(=O)NCC(=O)N[C@@H](CCC(=O)O)C(=O)N[C@@H](CC(C)C)C(=O)N[C@@H](CCC(N)=O)C(=O)N[C@@H](CCCNC(=N)N)C(=O)N[C@H](C(=O)N[C@@H](CCC(N)=O)C(=O)N[C@@H](CCC(N)=O)C(=O)N[C@@H](CCCNC(=N)N)C(=O)N[C@@H](CCCCN)C(=O)N[C@@H](CCC(N)=O)C(=O)N[C@@H](CO)C(=O)N[C@@H](CCCCN)C(=O)N[C@@H](CCCCN)C(=O)N1CCC[C@H]1C(=O)N1CCC[C@H]1C(=O)N[C@@H](C)C(=O)N[C@@H](CCCCN)C(=O)N[C@@H](CC(C)C)C(=O)N[C@@H](CCC(N)=O)C(=O)N1CCC[C@H]1C(=O)N[C@@H](CCCNC(=N)N)C(=O)O)C(C)C)[C@@H](C)O` [Chimeric motilin (U)(MG-17E/Q)] (H-FVPIFTYGELQRVQQRKQSKKPPAKLQPR-OH; N-terminus and C-terminus assumed) has a half-life of 5.66 min.
For `CC[C@H](C)[C@H](NC(=O)[C@@H]1CCCN1C(=O)[C@@H](NC(=O)[C@@H](N)Cc1ccccc1)C(C)C)C(=O)N[C@@H](Cc1ccccc1)C(=O)N[C@H](C(=O)N[C@@H](Cc1ccc(O)cc1)C(=O)NCC(=O)N[C@@H](CCC(=O)O)C(=O)N[C@@H](CC(C)C)C(=O)N[C@@H](CCC(N)=O)C(=O)N[C@@H](CCCNC(=N)N)C(=O)N[C@H](C(=O)N[C@@H](CCC(N)=O)C(=O)N[C@@H](CCC(N)=O)C(=O)N[C@@H](CCCNC(=N)N)C(=O)N[C@@H](CCCCN)C(=O)N[C@@H](CCC(=O)O)C(=O)N[C@@H](CO)C(=O)N[C@@H](CCCCN)C(=O)N[C@@H](CCCCN)C(=O)N[C@@H](C)C(=O)N[C@@H](CCCCN)C(=O)N[C@@H](CC(C)C)C(=O)N[C@@H](C)C(=O)N[C@@H](C)C(=O)N[C@@H](CC(C)C)C(=O)N[C@@H](CCCCN)C(=O)N[C@@H](C)C(=O)O)C(C)C)[C@@H](C)O` [Chimeric motilin (V) (MG-dPPH1)] (H-FVPIFTYGELQRVQQRKESKKAKLAALKA-OH; N-terminus and C-terminus assumed), the half-life was 8.94 min.
`CC[C@H](C)[C@H](NC(=O)[C@@H]1CCCN1C(=O)[C@@H](NC(=O)[C@@H](N)Cc1ccccc1)C(C)C)C(=O)N[C@@H](Cc1ccccc1)C(=O)N[C@H](C(=O)N[C@@H](Cc1ccc(O)cc1)C(=O)NCC(=O)N[C@@H](CCC(=O)O)C(=O)N[C@@H](CC(C)C)C(=O)N[C@@H](CCC(N)=O)C(=O)N[C@@H](CCCNC(=N)N)C(=O)N[C@H](C(=O)N[C@@H](CCC(N)=O)C(=O)N[C@@H](CCC(N)=O)C(=O)N[C@@H](CCCNC(=N)N)C(=O)N[C@@H](CCCCN)C(=O)N[C@@H](CC(=O)O)C(=O)N[C@@H](CO)C(=O)N[C@@H](CCCCN)C(=O)N[C@@H](CCCCN)C(=O)N1CCC[C@H]1C(=O)N1CCC[C@H]1C(=O)N[C@@H](C)C(=O)N[C@@H](CCCCN)C(=O)N[C@@H](CC(C)C)C(=O)N[C@@H](CCC(N)=O)C(=O)N1CCC[C@H]1C(=O)N[C@@H](CCCNC(=N)N)C(=O)O)C(C)C)[C@@H](C)O` [Chimeric motilin (V)(MG-ES/DS)] (H-FVPIFTYGELQRVQQRKDSKKPPAKLQPR-OH; N-terminus and C-terminus assumed) gave a half-life of 10.1 min.
`CC[C@H](C)[C@H](NC(=O)[C@@H]1CCCN1C(=O)[C@@H](NC(=O)[C@@H](N)Cc1ccccc1)C(C)C)C(=O)N[C@@H](Cc1ccccc1)C(=O)N[C@H](C(=O)N[C@@H](Cc1ccc(O)cc1)C(=O)NCC(=O)N[C@@H](CCC(=O)O)C(=O)N[C@@H](CC(C)C)C(=O)N[C@@H](CCC(N)=O)C(=O)N[C@@H](CCCNC(=N)N)C(=O)N[C@H](C(=O)N[C@@H](CCC(N)=O)C(=O)N[C@@H](CCC(N)=O)C(=O)N[C@@H](CCCNC(=N)N)C(=O)N[C@@H](CCCCN)C(=O)N[C@@H](CCC(=O)O)C(=O)N[C@@H](CO)C(=O)N[C@@H](CCCCN)C(=O)N[C@@H](CCCCN)C(=O)N1CCC[C@H]1C(=O)N1CCC[C@H]1C(=O)N[C@@H](C)C(=O)N[C@@H](CCCCN)C(=O)N[C@@H](CC(C)C)C(=O)N[C@@H](C)C(=O)N[C@@H](C)C(=O)N[C@@H](CC(C)C)C(=O)N[C@@H](CCCCN)C(=O)N[C@@H](C)C(=O)O)C(C)C)[C@@H](C)O` [Chimeric motilin (VI)(MG-H1)] (H-FVPIFTYGELQRVQQRKESKKPPAKLAALKA-OH; N-terminus and C-terminus assumed) gave a half-life of 9.94 min.
Work on `CC[C@H](C)[C@H](NC(=O)[C@@H]1CCCN1C(=O)[C@@H](NC(=O)[C@@H](N)Cc1ccccc1)C(C)C)C(=O)N[C@@H](Cc1ccccc1)C(=O)N[C@H](C(=O)N[C@@H](Cc1ccc(O)cc1)C(=O)NCC(=O)N[C@@H](CCC(=O)O)C(=O)N[C@@H](CC(C)C)C(=O)N[C@@H](CCC(N)=O)C(=O)N[C@@H](CCCNC(=N)N)C(=O)N[C@H](C(=O)N[C@@H](CCC(N)=O)C(=O)N[C@@H](CCC(N)=O)C(=O)N[C@@H](CCCNC(=N)N)C(=O)N[C@@H](CCCCN)C(=O)N[C@@H](CCC(=O)O)C(=O)N[C@@H](CO)C(=O)N[C@@H](CCCCN)C(=O)N[C@@H](CCCCN)C(=O)N1CCC[C@H]1C(=O)N1CCC[C@H]1C(=O)N[C@@H](C)C(=O)N[C@@H](CCC(=O)O)C(=O)N[C@@H](CC(C)C)C(=O)N[C@@H](C)C(=O)N[C@@H](C)C(=O)N[C@@H](CC(C)C)C(=O)N[C@@H](CCC(=O)O)C(=O)N[C@@H](C)C(=O)O)C(C)C)[C@@H](C)O` [Chimeric motilin (VII)(MG-H3)] (H-FVPIFTYGELQRVQQRKESKKPPAELAALEA-OH; N-terminus and C-terminus assumed) yielded a half-life of 12.8 min.
